The text below walks through data of patent US6716833B2, “Acetylenic α-amino acid-based sulfonamide hydroxamic acid tace inhibitors” (priority 1999, dated 2004).

Structures are written as SMILES.

Chain of TNF-α converting enzyme (TACE) (P78536 215-824, species assumed): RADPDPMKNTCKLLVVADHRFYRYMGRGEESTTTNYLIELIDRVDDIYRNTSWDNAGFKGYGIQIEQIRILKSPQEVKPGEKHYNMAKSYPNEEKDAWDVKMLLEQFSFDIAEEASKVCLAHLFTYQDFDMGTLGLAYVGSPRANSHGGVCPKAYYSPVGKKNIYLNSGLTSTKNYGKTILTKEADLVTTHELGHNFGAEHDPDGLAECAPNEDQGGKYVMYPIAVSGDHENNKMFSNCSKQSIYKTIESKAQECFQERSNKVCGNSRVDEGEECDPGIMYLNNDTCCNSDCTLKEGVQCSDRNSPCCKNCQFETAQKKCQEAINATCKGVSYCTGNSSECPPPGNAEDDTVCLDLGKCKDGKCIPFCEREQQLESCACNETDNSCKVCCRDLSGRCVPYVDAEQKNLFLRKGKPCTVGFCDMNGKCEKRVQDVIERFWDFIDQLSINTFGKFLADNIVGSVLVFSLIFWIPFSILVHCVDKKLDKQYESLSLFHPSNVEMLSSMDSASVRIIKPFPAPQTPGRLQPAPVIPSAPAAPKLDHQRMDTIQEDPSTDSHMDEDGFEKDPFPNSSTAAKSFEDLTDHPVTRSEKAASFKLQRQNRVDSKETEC

The first assay addresses TNF-α converting enzyme (TACE) (Homo sapiens, UniProt P78536). As to the kind of experiment: TACE inhibition (fluorescent peptidyl substrate). Format: biochemical. The settings on record: IC 50 nM (In Vitro Inhibition of TACE), Table 15.
For the compound `CC#CCOc1ccc(S(=O)(=O)N[C@H](CCCCNC(=O)c2sccc2Cl)C(=O)NO)cc1` [Example 352, N-[(5R)-5-({[4-(But-2-ynyloxy)phenyl]sulfonyl}amino)-6-(hydroxyamino)-6-oxohexyl]-3-chlorothiophene-2-carboxamide], the IC50 was 4.96 nM.
On the same count and under the same terms, with `CC#CCOc1ccc(S(=O)(=O)N[C@H](CCCCNC(=O)c2ccc(Cl)cc2)C(=O)NO)cc1` [Example 353, N-[(5R)-5-({[4-(But-2-ynyloxy)phenyl]sulfonyl}amino)-6-(hydroxyamino)-6-oxohexyl]-4-chlorobenzamide] the figure was 6.1 nM; with `CC#CCOc1ccc(S(=O)(=O)N[C@H](CCCCNC(=O)C2CCCCC2)C(=O)NO)cc1` [Example 354, N-[(5R)-5-({[4-(But-2-ynyloxy)phenyl]sulfonyl}amino)-6-(hydroxyamino)-6-oxohexyl]cyclohexanecarboxamide], 5.89 nM; with `CC#CCOc1ccc(S(=O)(=O)N[C@H](CCCCNC(=O)Cc2ccc(Cl)c(Cl)c2)C(=O)NO)cc1` [Example 355, (2R)-2-({[4-(But-2-ynyloxy)phenyl]sulfonyl}amino)-6-{[2-(3,4-dichlorophenyl)acetyl]amino}-N-hydroxyhexanamide], 12.4 nM.
The same measure, in the same setting: then `CC#CCOc1ccc(S(=O)(=O)N[C@H](CCCCNC(=O)c2cc(C)oc2C)C(=O)NO)cc1` [Example 356, N-[(5R)-5-({[4-(But-2-ynyloxy)phenyl]sulfonyl}amino)-6-(hydroxyamino)-6-oxohexyl]-2,5-dimethyl-3-furamide], with 9.36 nM.
Same read-out and setting: then `CC#CCOc1ccc(S(=O)(=O)N[C@H](CCCCNC(=O)c2c(C)noc2C)C(=O)NO)cc1` [Example 357, N-[(5R)-5-({[4-(But-2-ynyloxy)phenyl]sulfonyl}amino)-6-(hydroxyamino)-6-oxohexyl]-3,5-dimethylisoxazole-4-carboxamide], with 14.1 nM; and `CC#CCOc1ccc(S(=O)(=O)N[C@H](CCCCNC(=O)CCc2ccccc2)C(=O)NO)cc1` [Example 358, (2R)-2-({[4-(But-2-ynyloxy)phenyl]sulfonyl}amino)-N-hydroxy-6-[(3-phenylpropanoyl)amino]hexanamide], with 8.84 nM; and `CC#CCOc1ccc(S(=O)(=O)N[C@H](CCCCNC(=O)c2ccncc2)C(=O)NO)cc1` [Example 359, N-[(5R)-5-({[4-(But-2-ynyloxy)phenyl]sulfonyl}amino)-6-(hydroxyamino)-6-oxohexyl]isonicotinamide], with 9.28 nM.
Consider `CC#CCOc1ccc(S(=O)(=O)N[C@H](CCCCNC(=O)c2ccccc2OC)C(=O)NO)cc1` [Example 360, N-[(5R)-5-({[4-(But-2-ynyloxy)phenyl]sulfonyl}amino)-6-(hydroxyamino)-6-oxohexyl]-2-methoxybenzamide], for which the IC50 stood at 4.97 nM.
In turn, `CC#CCOc1ccc(S(=O)(=O)N[C@H](CCCCNC(=O)c2ccc(OC)cc2)C(=O)NO)cc1` [Example 361, N-[(5R)-5-({[4-(But-2-ynyloxy)phenyl]sulfonyl}amino)-6-(hydroxyamino)-6-oxohexyl]-4-methoxybenzamide] registered an IC50 of 6.32 nM.
The same measure, in the same setting: with `CC#CCOc1ccc(S(=O)(=O)N[C@H](CCCCNC(=O)Cc2ccc([N+](=O)[O-])cc2)C(=O)NO)cc1` [Example 362, (2R)-2-({[4-(But-2-ynyloxy)phenyl]sulfonyl}amino)-N-hydroxy-6-{[2-(4-nitrophenyl)acetyl]amino}hexanamide] the figure was 4.55 nM; with `CC#CCOc1ccc(S(=O)(=O)N[C@H](CCCCNC(=O)Cc2ccccc2)C(=O)NO)cc1` [Example 363, (2R)-2-({[4-(But-2-ynyloxy)phenyl]sulfonyl}amino)-N-hydroxy-6-[(2-phenylacetyl)amino]hexanamide], 3.39 nM; with `CC#CCOc1ccc(S(=O)(=O)N[C@H](CCCCNC(=O)c2cnc3ccccc3c2)C(=O)NO)cc1` [Example 364, N-[(5R)-5-({[4-(But-2-ynyloxy)phenyl]sulfonyl}amino)-6-(hydroxyamino)-6-oxohexyl]quinoline-3-carboxamide], 7.79 nM.
The same measure, in the same setting: then `CC#CCOc1ccc(S(=O)(=O)N[C@H](CCCCNC(=O)c2ccsc2)C(=O)NO)cc1` [Example 365, N-[(5R)-5-({[4-(But-2-ynyloxy)phenyl]sulfonyl}amino)-6-(hydroxyamino)-6-oxohexyl]thiophene-3-carboxamide], with 14.6 nM.
Same read-out and setting: then `CC#CCOc1ccc(S(=O)(=O)N[C@H](CCCCNC(=O)/C=C/c2ccccc2)C(=O)NO)cc1` [Example 366, (E)-N-[(5R)-5-({[4-(But-2-ynyloxy)phenyl]sulfonyl}amino)-6-(hydroxyamino)-6-oxohexyl]-3-phenylprop-2-enamide], with 106 nM; and `CC#CCOc1ccc(S(=O)(=O)N[C@H](CCCNC(=O)c2cccs2)C(=O)NO)cc1` [Example 368, (4R)-4-({[4-(but-2-ynyloxy)Phenyl]sulfonyl}amino)-5-(hydroxyamino)-5-oxopentylithiophene-2-carboxamide], with 151 nM; and `CC#CCOc1ccc(S(=O)(=O)N[C@H](CCCNC(=O)NCC)C(=O)NO)cc1` [Example 369], with 14.2 nM.
Take `CC#CCOc1ccc(S(=O)(=O)N[C@H](CCCNC(=O)Nc2ccccc2)C(=O)NO)cc1` [Example 370, (2R)-5-[(Anilinocarbonyl)amino]-2-({[4-(but-2-ynyloxy)phenyl]sulfonyl}amino)-N-hydroxypentanamide]: the IC50 was found to be 2.4 nM.
On the same count and under the same terms, with `CC#CCOc1ccc(S(=O)(=O)N[C@H](CCCNC(=O)OCCCCCCCC)C(=O)NO)cc1` [Example 371, Octyl(4R)-4-({[4-(but-2-ynyloxy)phenyl]sulfonyl}amino)-5-(hydroxyamino)-5-oxopentylcarbamate] the figure was 377 nM.
Same read-out and setting: with `CC#CCOc1ccc(S(=O)(=O)N[C@H](CCCNC(=O)N(CC)CC)C(=O)NO)cc1` [Example 373] the figure was 16.9 nM; with `CC#CCOc1ccc(S(=O)(=O)N[C@H](CCCNC(=O)N(C)c2ccccc2)C(=O)NO)cc1` [Example 374, (2R)-2-({[4-(but-2-ynyloxy)Phenyl]sulfonyl}amino)-N-hydroxy-5-{[(methylanilino)carbonyl]amino}pentanamide], 18.2 nM; with `CC#CCOc1ccc(S(=O)(=O)N[C@H](CCCNS(=O)(=O)c2cn(C)cn2)C(=O)NO)cc1` [Example 375, (2R)-2-({[4-(but-2-ynyloxy)Phenyl]sulfonyl}amino)-N-hydroxy-5-{[(1-methyl-1H-imidazol-4-yl)sulfonyl]amino}pentanamide], 24.6 nM.
For `CC#CCOc1ccc(S(=O)(=O)N[C@H](CCCNC(=O)CN2CCOCC2)C(=O)NO)cc1` [Example 376, (2R)-2-({[4-(but-2-ynyloxy)Phenyl]sulfonyl}amino)-N-hydroxy-5-[(2-morpholin-4-ylacetyl)amino]pentanamide], the IC50 turned out to be 21.9 nM.
In the case of `CC#CCOc1ccc(S(=O)(=O)N[C@H](CCCNC(=O)CN2CCN(C)CC2)C(=O)NO)cc1` [Example 377, (2R)-2-({[4-(but-2-ynyloxy)Phenyl]sulfonyl}amino)-N-hydroxy-5-{[2-(4-methylpiperazin-1-yl)acetyl]amino}pentanamide], the IC50 is 26.5 nM.

Staying with this assay, now noted: read-out: IC 50 nM (In Vitro Inhibition of TACE); Table 15.
Consider `CC#CCOc1ccc(S(=O)(=O)N[C@H](CCCNC(=O)Oc2ccc(OC)cc2)C(=O)NO)cc1` [Example 372, 4-Methoxyphenyl(4R)-4-({[4-(but-2-ynyloxy)phenyl]sulfonyl}amino)-5-(hydroxyamino)-5-oxopentylcarbamate], for which the IC50 was 8.4 nM.
